# Results published in patent publication US20240368727A1, “METHOD OF SELECTIVE PRECIPITATION OF METALS USING AMIDE COMPOUNDS” (The University Court of the University of Edinburgh, priority 2021, published 2024).
# What was measured:
# [1] = Precipitation from multi-element ICP standard solutions (FIG. 4, FIG. 25): Fe; conditions: 6 M HCl multi-element solution (100 mg L^−1 Fe), excess compound, 24 hours, RT
# Description: (§1) The following ICP multi-element standard solutions were used: Transition metal mix 3 for ICP supplied by Sigma Aldrich comprising 100 mg L^−1 Au, Ir, Os, Pd, Pt, Rh, Ru in 10% hydrochloric acid and ICP multi-element standard solution IV comprising 1000 mg L^−1 Ag, Al, B, Ba, Bi, Ca, Cd, Co, Cr, Cu, Fe, Ga, In, K, Li, Mg, Mn, Na, Ni, Pb, Sr, Tl, Zn in dilute nitric acid.
# (§2) Each solution (1 mL) was diluted to 10 mL using either 2 M HCl or 6 M HCl, resulting in solutions of 10 ppm Au, Ir, Os, Pd, Pt, Rh, Ru and 100 mg L^−Al, B, Ba, Bi, Ca, Cd, Co, Cr, Cu, Fe, Ga, In, K, Li, Mg, Mn, Na, Ni, Pb, Sr, Tl, Zn. The solutions were filtered prior to use in precipitation experiments due to the precipitation of silver chloride, which was subsequently excluded from ICP-OES analysis. The precipitation method used for the 0.01 M mixed-metal solutions was followed.
# (§3) FIGS. 25(a)-(c) show alternative embodiments of the compounds that were tested. Conditions were: 0.2 mmol of compound contacted with a 2 M or 6 M HCl multi element solution for 24 hours, RT.
# (§4) The solution comprised: • 10 mg L^−1 Au, Ir, Os, Pd, Pt, Rh, Ru; and • 100 mg L^−1 Al, B, Ba, Bi, Ca, Cd, Co, Cr, Cu, Fe, Ga, In, K, Li, Mg, Mn, Na, Ni, Pb, Sr, Tl, Zn/
# [2] = Precipitation from multi-element ICP standard solutions (FIG. 4, FIG. 25): Ga; conditions: 6 M HCl multi-element solution (100 mg L^−1 Ga), excess compound, 24 hours, RT
# Description: as §1, §2, §3, §4
# [3] = Precipitation from 0.01 M mixed-metal solution in HCl (FIG. 2): other metals; conditions: 0.2 mmol solid L (10-fold excess), 0.01 M mixed-metal solution in 2 M HCl
# Description: (§5) Hydrochloric acid solutions (2 M and 6 M) were prepared by dilution of concentrated hydrochloric acid with deionised water. Mixed-metal solutions (0.01 M) were typically prepared by dilution of 0.1 M stock solutions of each individual metal salt solution in 2 or 6 M HCl.
# (§6) Solid compound L (0.2 mmol or 0.02 mmol) was added to a vial with a magnetic stir bar and the metal-containing aqueous solution (2 mL) added. The mixture was stirred for 1 hour at room temperature (20° C.) at 500 rpm after which the stir bar was removed and the vial centrifuged. The supernatant was decanted and samples prepared for ICP-OES analysis to measure the uptake of metal by L. Samples were diluted by 100× in 2% nitric acid prior to ICP-OES analysis. This procedure was repeated in triplicate.
# (§7) FIG. 2 is a graph showing percentage metal(s) removed by precipitation from a 0.01 M mixed-metal solution in 2 M or 6 M HCl following the addition of either 0.2 mmol of compound L (10-fold excess L relative to metal) or 0.02 mmol of L (equimolar).
# [4] = Precipitation from 0.01 M mixed-metal solution in HCl (FIG. 2): Pt; conditions: excess L, 0.01 M mixed-metal solution in 6 M HCl
# Description: as §5, §6, §7
# [5] = Precipitation from multi-element ICP standard solutions (FIG. 4, FIG. 25): Au; conditions: excess compound, 24 hours, RT
# Description: as §1, §2, §3, §4
# [6] = Gold precipitation from HAuCl4 solutions versus acid concentration and temperature (FIGS. 7-9)
# [7] = Precipitation from 0.01 M mixed-metal solution of precious metals in 6 M HCl (FIG. 10); conditions: 0.01 M precious metals in 6 M HCl
# Description: FIG. 10 Graph showing percentage metal(s) removed by precipitation from a 0.01 M mixed-metal solution of precious metals in 6 M HCl following the addition of either 0.2 mmol of compound L (10-fold excess L relative to metal) or 0.02 mmol of L (equimolar);
# as §5, §6
# Referring to FIG. 10, there is shown a graph depicting percentage metal(s) removed by precipitation from a 0.01 M mixed-metal solution of precious metals in 6 M HCl following the addition of either 0.2 mmol of compound L (10-fold excess L relative to metal) or 0.02 mmol of L (equimolar).
# [8] = Selective precipitation from waste printed circuit boards (Table 3): Ni; conditions: 20% aqua regia solution from waste printed circuit boards; 0.02 mmol L, 1 hour
# Description: (§8) End-of-life printed circuit boards were supplied by Edinburgh School of Chemistry workshop. Gold-tipped sections of the circuit boards (22.85 g) were cut off and soaked in 100 mL aqua regia for 24 hours. This solution was then diluted with deionised water to 250 mL and the metal content analysed by ICP-OES.
# (§9) An aliquot of the e-waste solution (2 mL) was stirred with L (0.0059 g, 0.02 mmol, excess with respect to the gold concentration) for 1 hour at room temperature after which the stir bar was removed and the vial centrifuged. The supernatant was decanted and samples prepared for ICP-OES analysis to measure the uptake of metal. Samples were diluted by 1000× and 20× in 2% nitric acid prior to ICP-OES analysis. This procedure was repeated in triplicate.
# [9] = Precipitation from 0.01 M mixed-metal solution in HCl (FIG. 2): Fe; conditions: excess L, 0.01 M mixed-metal solution in 6 M HCl
# Description: as §5, §6, §7
# [10] = Selective precipitation from waste printed circuit boards (Table 3): Au; conditions: 20% aqua regia solution from waste printed circuit boards; 0.02 mmol L, 1 hour
# Description: as §8, §9
# [11] = Precipitation of HAuCl4 by L from 2 M HCl (Table 2); conditions: 0.01M HAuCl4 in 2M HCl after contact with L
# Description: Table 2 below describes precipitation of HAuCl4 by L from 2 M HCl followed by its release from L as HAuCl4 using deionised water. All solutions were diluted 100× prior to ICP-OES analysis.
# [12] = Selective precipitation from waste printed circuit boards (Table 3): Sn; conditions: 20% aqua regia solution from waste printed circuit boards; 0.02 mmol L, 1 hour
# Description: as §8, §9
# [13] = Precipitation from 0.01 M mixed-metal solution in HCl (FIG. 2): Au
# Description: as §5, §6, §7
# [14] = Precipitation from multi-element ICP standard solutions (FIG. 4, FIG. 25): Tl; conditions: excess compound, 24 hours, RT
# Description: as §1, §2, §3, §4
# [15] = Precipitation from multi-element ICP standard solutions (FIG. 4): Pt; conditions: multi-element ICP standard solutions in HCl, Pt present as Pt(II), excess L
# Description: as §1, §2
# [16] = Selective precipitation from waste printed circuit boards (Table 3): Cu; conditions: 20% aqua regia solution from waste printed circuit boards; 0.02 mmol L, 1 hour
# Description: as §8, §9
# [17] = Selective precipitation from waste printed circuit boards (Table 3): Pb; conditions: 20% aqua regia solution from waste printed circuit boards; 0.02 mmol L, 1 hour
# Description: as §8, §9
# [18] = Precipitation of Au by L from various aqueous matrices (Table 1); conditions: 0.059 g L, 1 hour, room temperature
# Description: Conditions: 2 mL Au solution contacted with 0.059 g L for 1 hour, room temperature. Solution filtered and diluted 100× in 2% HNO3 prior to ICP-OES analysis. *HAuCl4 used. **Au^0 added to sulfuric acid solution with a few drops of 30% hydrogen peroxide added to aid dissolution of Au. All solutions were diluted 100× prior to ICP-OES analysis.
# [19] = Precipitation from 0.01 M mixed-metal solution in HCl (FIG. 2): Sn; conditions: excess L, 0.01 M mixed-metal solution in 6 M HCl
# Description: as §5, §6, §7
# [20] = Quantitative NMR solubility experiments; format: physicochemical
# Description: ^1H NMR spectra were recorded on a Bruker Avance III 400 MHz spectrometer. 2 M and 6 M HCl solutions were diluted from concentrated HCl in D2O. A 0.1 M solution of L in 2 M or 6 M HCl was prepared by adding L (0.0178 g) to an NMR tube along with the relevant HCl/D2O solution (0.55 mL) and 1 M tert-butanol in D2O (0.05 mL) as an internal standard. Any undissolved solids were allowed to settle to the bottom of the NMR tube before acquiring ^1H NMR spectra.
# ^1H NMR spectra were acquired for 2 M HCl solutions between 300-350 K in 10 K increments and for 6 M HCl solutions between 300-330 K in 10 K increments; attempts to acquire additional spectra beyond 330 K for these latter samples were unsuccessful due to excessive line broadening of the spectra and difficulties with sample locking.
# [21] = Selective stripping with H-tube apparatus (FIG. 3)
# Description: Solid L (0.2 mmol) was added to one side of the H-tube with a stir bar. The metal-containing aqueous solution (2 mL) was then added to the solids and the mixture stirred for 1 hour at room temperature at 500 rpm, after which it was passed through the glass frit of the H-tube with the aid of compressed air or N2 gas. The filtrate was collected for ICP-OES analysis to determine metal uptake. The solids were subsequently washed with 2 M HCl (3×2 mL) for 30 mins, with each 2 mL solution being passed through the glass frit of the H-tube. The solids were then washed with ultrapure deionised water (5×2 mL) in the same manner. The use of a H-tube allows for all solids to be retained in the same vessel to minimise any loss of metal due to material transfer. This procedure was repeated in duplicate.
# (a) orange bars: Percentage metal removed by precipitation from a 0.01 M mixed-metal solution in 6 M HCl.
# (b) green bars: percentage of metal stripped from the precipitate by a 2 M HCl wash.
# (c) blue bars: percentage of metal stripped from the precipitate after a subsequent wash with DI water.
compound,measurement,setting,value
CN(CCN(C)C(=O)c1ccccc1)C(=O)c1ccccc1 [L],% uptake / precipitation of Fe,[1],70%
same,% uptake / precipitation of Ga,[2],> 99%
same,co-precipitation of other metals,[3],< 5%
same,uptake of Pt,[4],complete uptake
same,% uptake / precipitation of Au,[5]; 2 M HCl multi-element solution (10 mg L^−1 Au),70%
same,% uptake / precipitation of Au,[5]; 6 M HCl multi-element solution (10 mg L^−1 Au),> 99%
same,quantity of [HL][AuCl4] precipitated over 5 minutes on raising temperature,"[6]; 2 M HCl, from 20 to 40° C. and from 40 to 80° C.",doubles
same,precipitation of [HL][AuCl4] on addition of HAuCl4,[6]; solution of L in 12 M HCl,rapid and wholesale precipitation
same,metal(s) removed by precipitation (selectivity),[7]; equimolar L (0.02 mmol),selective precipitation of gold over other precious metals
same,metal(s) removed by precipitation (selectivity),"[7]; excess L (0.2 mmol, 10-fold)",selective co-precipitation of gold and platinum
same,"% metal precipitated, Ni",[8],0%
same,uptake of Fe,[9],complete uptake
same,"% metal precipitated, Au",[10],98.1%
same,% Precipitation,[11],99.6%
same,"% metal precipitated, Sn",[12],0%
same,removal of Au by precipitation,"[13]; 0.2 mmol solid L (10-fold excess), 0.01 M each of Au, Al, Cu, Ni, Fe, Zn, Pt, Pd, Sn in 2 M HCl",near quantitative removal of Au
same,uptake of Au,"[13]; excess L, 0.01 M mixed-metal solution in 6 M HCl",complete uptake
same,metal uptake (selectivity),"[13]; stoichiometric L (0.02 mmol), 0.01 M mixed-metal solution in 2 M HCl",gold uptake only
same,metal uptake (selectivity),"[13]; stoichiometric L, 0.01 M mixed-metal solution in 6 M HCl",selective gold uptake
same,% uptake / precipitation of Tl,[14]; 2 M HCl multi-element solution (100 mg L^−1 Tl),10%
same,% uptake / precipitation of Tl,[14]; 6 M HCl multi-element solution (100 mg L^−1 Tl),95%
same,Pt uptake,[15],no Pt uptake
same,"% metal precipitated, Cu",[16],0%
same,"% metal precipitated, Pb",[17],0%
same,% Precipitated,"[18]; 2 mol L^−1 H2SO4 and 2M NaBr, Au^0 with H2O2, initial Au 1930 mg L^−1",99.5%
same,% Precipitated,"[18]; 2 mol L^−1 H2SO4 and 2M NaCl, Au^0 with H2O2, initial Au 1940 mg L^−1",99.4%
same,% Precipitated,"[18]; 20% Aqua regia, HAuCl4 used, initial Au 1920 mg L^−1",99.8%
same,% Precipitated,"[18]; 100% Aqua regia, HAuCl4 used, initial Au 1920 mg L^−1",99.7%
same,uptake of Sn,[19],complete uptake
same,concentration of dissolved L,"[20]; 2 M HCl, heated to 350 K",100 µM
same,Dissolution of L (concentration of dissolved L),"[20]; 2 M HCl, quantitative 1H NMR",0.02 mM
same,concentration of dissolved L,"[20]; 6 M HCl, 300 K",320 µM
same,increase in dissolved L on increasing HCl from 2 M to 6 M,[20]; 300 K,16 fold
same,metal stripped from the precipitate by a 2 M HCl wash,"[21]; L loaded with Au, Fe, Pt and Sn at 6 M HCl, then wash with 2 M HCl","dissolution of Fe, Sn and Pt only, with Au retained on the solids"
same,metal stripped from the precipitate by subsequent wash with DI water,"[21]; isolated solids after the 2 M HCl wash, washed with DI water",releases the Au into solution
